Data published in ChEMBL document CHEMBL1132047, “Nonpeptide oxytocin antagonists: analogs of L-371,257 with improved potency” (Bioorg Med Chem Lett, 1999).

Experiments:
[1] = Oral bioavailability in rat (dose 20 mg/kg); format: ADME, organism-based; conditions: in vivo
[2] = Compound was evaluated in vivo in rat for the plasma half-life at a iv dose of 3 mg/kg and oral dose of 10 mg/kg and experiment by using concentration vs time curve; format: ADME, organism-based
Oxytocin receptor [3] = target: T1, Oxytocin receptor (Homo sapiens, UniProt P30559); experiment: Binding affinity for human oxytocin receptor
T1 sequence (P30559 whole entry): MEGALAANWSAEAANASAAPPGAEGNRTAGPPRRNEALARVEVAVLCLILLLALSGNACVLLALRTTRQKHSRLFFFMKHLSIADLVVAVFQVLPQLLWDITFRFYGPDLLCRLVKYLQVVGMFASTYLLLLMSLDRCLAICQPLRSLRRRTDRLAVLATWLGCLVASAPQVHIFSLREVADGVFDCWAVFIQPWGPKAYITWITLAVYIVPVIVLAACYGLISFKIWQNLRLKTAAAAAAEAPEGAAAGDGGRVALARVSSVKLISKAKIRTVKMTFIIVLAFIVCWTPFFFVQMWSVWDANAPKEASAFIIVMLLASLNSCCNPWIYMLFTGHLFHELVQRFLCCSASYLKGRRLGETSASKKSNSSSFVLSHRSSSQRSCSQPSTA

Oxytocin receptor [4] = target: T2, Oxytocin receptor (Rattus norvegicus, UniProt P70536); experiment: Binding affinity for rat uterine oxytocin receptor (rOTr)
T2 sequence (P70536 whole entry): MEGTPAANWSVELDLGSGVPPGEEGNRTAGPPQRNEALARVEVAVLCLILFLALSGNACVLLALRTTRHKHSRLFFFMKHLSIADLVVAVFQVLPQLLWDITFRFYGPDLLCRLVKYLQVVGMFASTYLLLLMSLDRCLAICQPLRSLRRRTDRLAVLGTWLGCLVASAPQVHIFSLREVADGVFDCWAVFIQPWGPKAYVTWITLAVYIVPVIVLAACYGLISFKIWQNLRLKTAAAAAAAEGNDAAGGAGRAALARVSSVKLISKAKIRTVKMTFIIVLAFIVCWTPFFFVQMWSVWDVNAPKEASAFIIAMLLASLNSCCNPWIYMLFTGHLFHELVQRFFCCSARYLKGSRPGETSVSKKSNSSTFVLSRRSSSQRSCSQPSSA

Rattus norvegicus [5] = experiment: Compound tested in vivo for antagonist potency against oxytocin (OT)-induced in rats by id administration; format: functional
Rattus norvegicus [6] = experiment: Compound tested in vivo for antagonist potency against oxytocin (OT)-induced in rats by iv administration; format: functional
[7] = Compound was evaluated for pharmacokinetic property in rats after an oral dose of 10 mg/kg and the value was reported as oral bioavailability (F); format: ADME, organism-based; conditions: rat, in vivo
Vasopressin V2 receptor [8] = target: Vasopressin V2 receptor (Homo sapiens, UniProt P30518); experiment: Binding affinity towards cloned human Vasopressin V2 receptor by using functional assay
Vasopressin V2 receptor [9] = target: Vasopressin V2 receptor (Rattus norvegicus, UniProt Q00788); experiment: Binding affinity towards rat kidney Vasopressin V2 receptor by using functional assay
Vasopressin V1a receptor [10] = target: Vasopressin V1a receptor (Rattus norvegicus, UniProt P30560); experiment: Binding affinity towards rat liver Vasopressin V1a receptor by using functional assay
Vasopressin V1a receptor [11] = target: Vasopressin V1a receptor (Homo sapiens, UniProt P37288); experiment: Binding affinity towards human Vasopressin V1a receptor by using functional assay
[12] = Compound was evaluated in vivo in rat for the plasma half-life at a oral dose of 20 mg/kg experiment by using concentration vs time curve; format: ADME, organism-based; design: dose 20 mg/kg, route oral
Rattus norvegicus [13] = experiment: Compound tested in vivo for antagonist potency against oxytocin (OT)-induced contractions in rat uterus by iv administration; format: functional

Vasopressin V2 receptor (Rattus norvegicus, UniProt Q00788), sequence (Q00788 whole entry): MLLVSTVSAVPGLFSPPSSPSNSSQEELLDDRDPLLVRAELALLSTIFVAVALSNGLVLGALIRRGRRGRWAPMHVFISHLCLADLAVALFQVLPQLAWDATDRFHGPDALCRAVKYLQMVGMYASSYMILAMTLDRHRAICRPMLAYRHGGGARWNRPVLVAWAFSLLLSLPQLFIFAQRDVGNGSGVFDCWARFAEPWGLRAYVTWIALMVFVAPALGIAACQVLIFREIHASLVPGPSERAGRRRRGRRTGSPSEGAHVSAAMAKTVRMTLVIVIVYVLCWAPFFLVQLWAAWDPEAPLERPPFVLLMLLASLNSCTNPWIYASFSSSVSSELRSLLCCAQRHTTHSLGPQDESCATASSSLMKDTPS
Vasopressin V1a receptor (Rattus norvegicus, UniProt P30560), sequence (P30560 whole entry): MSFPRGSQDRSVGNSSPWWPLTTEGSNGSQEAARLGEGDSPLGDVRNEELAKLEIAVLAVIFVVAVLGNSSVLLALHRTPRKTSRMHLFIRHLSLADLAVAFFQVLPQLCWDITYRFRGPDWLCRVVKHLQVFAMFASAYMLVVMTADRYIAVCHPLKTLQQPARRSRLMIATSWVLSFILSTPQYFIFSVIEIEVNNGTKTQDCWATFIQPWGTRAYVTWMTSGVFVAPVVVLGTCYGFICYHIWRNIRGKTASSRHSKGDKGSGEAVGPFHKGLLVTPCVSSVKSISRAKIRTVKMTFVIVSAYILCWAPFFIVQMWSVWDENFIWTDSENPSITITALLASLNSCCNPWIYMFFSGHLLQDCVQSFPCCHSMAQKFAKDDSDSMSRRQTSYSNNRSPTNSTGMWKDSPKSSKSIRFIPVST
Vasopressin V2 receptor (Homo sapiens, UniProt P30518), sequence (P30518 whole entry): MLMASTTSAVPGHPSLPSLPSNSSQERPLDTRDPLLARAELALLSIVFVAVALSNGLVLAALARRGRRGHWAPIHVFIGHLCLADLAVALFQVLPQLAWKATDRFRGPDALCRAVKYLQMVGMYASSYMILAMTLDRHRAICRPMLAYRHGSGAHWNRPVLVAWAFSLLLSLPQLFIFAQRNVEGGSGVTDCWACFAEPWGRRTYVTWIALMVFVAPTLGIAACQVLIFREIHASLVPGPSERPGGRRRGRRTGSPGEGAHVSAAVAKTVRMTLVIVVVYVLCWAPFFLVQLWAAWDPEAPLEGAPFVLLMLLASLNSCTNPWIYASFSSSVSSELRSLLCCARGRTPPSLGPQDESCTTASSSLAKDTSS
Vasopressin V1a receptor (Homo sapiens, UniProt P37288), sequence (P37288 whole entry): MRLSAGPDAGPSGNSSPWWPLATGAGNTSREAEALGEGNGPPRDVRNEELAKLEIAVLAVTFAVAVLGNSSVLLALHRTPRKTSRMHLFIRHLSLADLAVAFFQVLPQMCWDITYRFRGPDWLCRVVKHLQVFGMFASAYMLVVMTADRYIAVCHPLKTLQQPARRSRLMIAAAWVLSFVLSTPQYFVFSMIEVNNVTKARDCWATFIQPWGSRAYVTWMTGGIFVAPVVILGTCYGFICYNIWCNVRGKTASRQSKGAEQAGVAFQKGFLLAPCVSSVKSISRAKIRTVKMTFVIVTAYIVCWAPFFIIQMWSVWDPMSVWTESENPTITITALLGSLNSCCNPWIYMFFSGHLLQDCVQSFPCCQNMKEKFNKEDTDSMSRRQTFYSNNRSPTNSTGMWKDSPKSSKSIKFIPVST

In the case of O=C(Cc1ccc(OC2CCN(CC3CC3)CC2)cc1OCC(F)(F)F)N1CCC(N2C(=O)OCc3ccccc32)CC1, the bioavailability [1] is reported as 45%, the half-life [2] is reported as 1.7 h and the Ki (Oxytocin receptor [3]) is reported as 1 nM. For the same compound, the Ki (Oxytocin receptor [4]) was 1.2 nM, the AD50 (Rattus norvegicus [5]) was 22 mg/kg and the AD50 (Rattus norvegicus [6]) was 0.69 mg/kg.
CC(=O)N1CCC(Oc2ccc(CC(=O)N3CCC(N4C(=O)OCc5ccccc54)CC3)c(OCC(F)(F)F)c2)CC1 gave a bioavailability [1] of 19%, a half-life [2] of 0.27 h and a bioavailability [7] of 19%. It also gave a Ki (Oxytocin receptor [3]) of 1.4 nM, a Ki (Oxytocin receptor [4]) of 0.71 nM and an AD50 (Rattus norvegicus [5]) of 0.64 mg/kg. It also gave a Ki (Vasopressin V2 receptor [8]) of 130 nM, a Ki (Vasopressin V2 receptor [9]) of 150 nM and a Ki (Vasopressin V1a receptor [10]) of 2 nM. The Ki (Vasopressin V1a receptor [11]) was 740 nM and the AD50 (Rattus norvegicus [6]) was 0.06 mg/kg.
Compound CC(=O)N1CCC(Oc2ccc(CC(=O)N3CCC(N4C(=O)OCc5ccccc54)CC3)c(OC(F)(F)F)c2)CC1 has a Ki (Oxytocin receptor [3]) of 2.4 nM, a Ki (Oxytocin receptor [4]) of 2.8 nM and an AD50 (Rattus norvegicus [6]) of 0.27 mg/kg.
With COc1cc(OC2CCN(C(C)=O)CC2)ccc1C(=O)N1CCC(N2C(=O)OCc3ccccc32)CC1 the half-life [12] was 0.5 h, the AD50 (Rattus norvegicus [13]) was 0.55 mg/kg and the AD50 (Rattus norvegicus [5]) was 2.5 mg/kg.
Work on O=C(Cc1ccccc1OCC(F)(F)F)N1CCC(N2C(=O)OCc3ccccc32)CC1 yielded a Ki (Oxytocin receptor [3]) of 4.5 nM, a Ki (Oxytocin receptor [4]) of 6 nM and an AD50 (Rattus norvegicus [5]) of over 10 mg/kg. It also gave an AD50 (Rattus norvegicus [6]) of 1 mg/kg.
Compound O=C(Cc1ccc(N2CCOCC2)cc1OCC(F)(F)F)N1CCC(N2C(=O)OCc3ccccc32)CC1 has a Ki (Oxytocin receptor [3]) of 0.86 nM, a Ki (Oxytocin receptor [4]) of 0.6 nM and an AD50 (Rattus norvegicus [5]) of 0.97 mg/kg. It also gave an AD50 (Rattus norvegicus [6]) of 0.077 mg/kg.
Compound CC(=O)N1CCC(Oc2ccc(CC(=O)N3CCC(N4C(=O)OCc5ccccc54)CC3)cc2)CC1 has a Ki (Oxytocin receptor [3]) of 390 nM and a Ki (Oxytocin receptor [4]) of 1600 nM.
Work on COc1ccc(CCC(=O)N2CCC(N3C(=O)OCc4ccccc43)CC2)c(OC)c1 yielded a Ki (Oxytocin receptor [3]) of 240 nM and a Ki (Oxytocin receptor [4]) of 520 nM.
COc1ccc(CC(=O)N2CCC(N3C(=O)OCc4ccccc43)CC2)c(OC)c1 gave a Ki (Oxytocin receptor [3]) of 33 nM and a Ki (Oxytocin receptor [4]) of 37 nM.
Compound O=C(Cc1ccc(OCCN2CCOCC2)cc1OCC(F)(F)F)N1CCC(N2C(=O)OCc3ccccc32)CC1 has a bioavailability [1] of 31%, a half-life [2] of 2.8 h and a Ki (Oxytocin receptor [3]) of 1.4 nM. For the same compound, the Ki (Oxytocin receptor [4]) was 2.1 nM and the AD50 (Rattus norvegicus [6]) was 0.13 mg/kg.
COc1cc(OC2CCN(C(C)=O)CC2)ccc1CC(=O)N1CCC(N2C(=O)OCc3ccccc32)CC1 gave a Ki (Oxytocin receptor [3]) of 9.8 nM and a Ki (Oxytocin receptor [4]) of 36 nM.
